Data taken from patent US8815919B2, “Oxadiazole derivatives” (Merck Serono SA, priority 2009, dated 2014).
Counter-ions that a name gives are not always drawn. Like-named read-outs stand apart in the source and are kept apart here.

Experiments:
S1P1 [1] = molecular target: T1, S1P1 (Homo sapiens, UniProt P21453); experiment: Receptor binding assay, [33P]sphingosine 1-phosphate competition, S1P1 membranes, WGA SPA beads
Summary of the method: (§1)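 Competition of [33P]S1P ([…]) on CHO cell membranes with WGA SPA beads in 50 mM HEPES pH 7.5, 5 mM MgCl2, 100 mM NaCl, 0.4% fatty acid-free BSA; 60 min at RT. Triplicates normalised to total binding and nonspecific binding (1000-fold excess unlabeled S1P).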
Target sequence in this assay (P21453 whole entry, species assumed): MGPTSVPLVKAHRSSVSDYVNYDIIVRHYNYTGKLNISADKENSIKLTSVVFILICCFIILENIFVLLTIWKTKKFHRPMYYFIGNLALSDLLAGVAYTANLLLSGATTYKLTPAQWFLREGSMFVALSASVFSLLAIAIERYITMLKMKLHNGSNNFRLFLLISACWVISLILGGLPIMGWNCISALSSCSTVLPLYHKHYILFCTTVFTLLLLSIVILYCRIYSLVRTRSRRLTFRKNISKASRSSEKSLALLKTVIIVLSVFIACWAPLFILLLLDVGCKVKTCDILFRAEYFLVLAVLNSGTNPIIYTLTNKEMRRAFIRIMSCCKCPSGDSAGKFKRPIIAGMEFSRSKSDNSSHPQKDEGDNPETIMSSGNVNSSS

S1P3 [2] = molecular target: T2, S1P3 (Homo sapiens, UniProt Q99500); experiment: 35S-GTPγS binding on membranes of CHO cells expressing S1P3; type: biochemical; details: read-out: S1P3/GTPG EC50
T2 sequence (Q99500 whole entry, species assumed): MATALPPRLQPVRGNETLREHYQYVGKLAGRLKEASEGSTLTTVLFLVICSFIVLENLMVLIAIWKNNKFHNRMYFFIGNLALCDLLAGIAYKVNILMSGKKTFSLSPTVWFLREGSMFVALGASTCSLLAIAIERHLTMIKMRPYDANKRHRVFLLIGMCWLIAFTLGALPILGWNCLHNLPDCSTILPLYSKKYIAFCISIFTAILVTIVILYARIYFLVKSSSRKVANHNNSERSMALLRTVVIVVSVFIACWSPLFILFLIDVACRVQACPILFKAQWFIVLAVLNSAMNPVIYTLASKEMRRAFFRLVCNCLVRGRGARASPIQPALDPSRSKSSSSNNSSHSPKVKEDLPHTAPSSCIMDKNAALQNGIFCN
Protocol: (§2) Membranes were prepared from CHO cells expressing S1P1 or S1P3 for use in ligand and […] binding studies. Cells were suspended in 50 mM TRIS, pH 7.4, 2 mM EDTA, 250 mM Sucrose (buffer A) and 1× Complete protease inhibitor cocktail (Roche), and disrupted at 4° C. by N2 decompression using a cell disruption bomb (Parr Instrument). Following centrifugation at 1000 RPM for 10 min at 4° C., the supernatant was diluted (2×) in buffer A and centrifuged again at 19000 RPM for 75 min at 4° C. The pellet was then suspended in 10 mM HEPES, pH 7.4, 1 mM EDTA, 250 mM Sucrose (Buffer B), and 1× Complete EDTA-free protease inhibitor cocktail and homogenized using a potter. Membranes were flash frozen in liquid N2 and stored at −80° C.
(§3) Membranes (1 to 10 μg protein) prepared as described above, were incubated in 96-well Scintiplates (PerkinElmer) with test compounds diluted in DMSO, in 140 μl of 20 mM HEPES, pH 7.4, 10 mM MgCl2, 2 μg/well Saponin, 0.2% fatty acid free BSA (Assay buffer), 125 mM NaCl and 1.5 μM GDP. The assay was initiated with the addition of 60 μl of 1.5 nM [35S]-GTPγS (1100 Ci/mmol; GE Healthcare) in assay buffer. After 60 min incubation at 30° C. on a shaker, plates were centrifuged for 10 min at 2000 RPM. Supernatant was discarded and membrane bound radioactivity was measured on a PerkinElmer 1450 MicroBeta counter. Triplicate samples were averaged and expressed as % response relative to S1P activation in absence of compound (n=2).
(§4) The “potency” or the “activity” of the compounds is determined by the EC50 values as evaluated in the above described 35S-GTPγS binding assay.

S1P1 [3] = molecular target: T1, S1P1; experiment: 35S-GTPγS binding on membranes of CHO cells expressing S1P1; type: biochemical; details: read-out: S1P1/GTPG EC50
Protocol: as §2, §3, §4
Target sequence in this assay (P21453 whole entry, species assumed): as the sequence (P21453 whole entry, species assumed) above

S1P1 [4] = molecular target: T1, S1P1; experiment: S1P1 internalization assay in S1P1-U2OS cells (S1P1-EGFP), cell imaging; type: cell-based; design: host or cells: U2OS (human bone osteosarcoma epithelial cells), CMV promoter, geneticin selection; details: 1 hour incubation
Summary of the method: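 U2OS cells stably expressing human S1P1-EGFP, plated overnight in 1% FCS medium, then serum-starved 2 h in 0.1% fatty-acid-free BSA before 1 h compound exposure at 37 °C. After PFA fixation and Hoechst staining, internalization imaged as EGFP spot count per nucleus.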
Target sequence in this assay (P21453 whole entry): as the sequence (P21453 whole entry, species assumed) above

S1P3 [5] = molecular target: T2, S1P3; experiment: Receptor binding assay, [33P]sphingosine 1-phosphate competition, S1P3 membranes, WGA SPA beads; details: 384 well-plate; read-out: S1P3 binding Ki (M) (384 well-plate)
Summary of the method: as §1

[6] = 96 well-plate, read-out: S1P1 binding Ki (M) (96 well-plate)
[7] = 384 well-plate, read-out: S1P1 binding Ki (M) (384 well-plate)

With COCc1cc(-c2nc(-c3cccc(CN(C)CCC(=O)O)c3)no2)ccc1N1CCCCC1C (stereo not drawn) [Example 2, N-(3-{5-[3-(methoxymethyl)-4-(2-methylpiperidin-1-yl)phenyl]-1,2,4-oxadiazol-3-yl}benzyl)-N-methyl-beta-alanine, hydrochloride salt] as the compound, how does the Ki (S1P1 [1]; [6]) read?
The Ki was 1.36e-10 M.

What about the EC50 (S1P3 [2]) of the same compound?
Its EC50 is 44.8 nM.

And the EC50 (S1P1 [3])?
Its EC50 is 0.287 nM.

Which EC50 (S1P1 [4]) does the source give for COCc1cc(-c2nc(-c3ccc(C(=O)NCCC(=O)O)c(F)c3)no2)ccc1N1CCCCC1C (stereo not drawn) [Example 3, N-(2-fluoro-4-{5-[3-(methoxymethyl)-4-(2-methylpiperidin-1-yl)phenyl]-1,2,4-oxadiazol-3-yl}benzoyl)-beta-alanine] here?
Its EC50 is 7.76 nM.

And the Ki (S1P1 [1]; [6])?
The Ki was 8.32e-10 M.

And the EC50 (S1P1 [3])?
The EC50 was 8.43 nM.

For COCc1cc(-c2nc(-c3cccc(COCC(=O)O)c3)no2)ccc1N1CCCCC1C (centres unmarked) [Example 4, [(3-{5-[3-(methoxymethyl)-4-(2-methylpiperidin-1-yl)phenyl]-1,2,4-oxadiazol-3-yl}benzyl)oxy]acetic acid, hydrochloride salt], which Ki (S1P1 [1]; [6]) is on record?
The Ki was 4.76e-10 M.

What about the EC50 (S1P3 [2]) of the same compound?
Its EC50 is 313 nM.

What about the Ki (S1P3 [5]) of the same compound?
The Ki was 7.53e-07 M.

And the EC50 (S1P1 [3])?
The EC50 was 1.05 nM.

With COCc1cc(-c2nc(-c3cc(F)c(F)c(OCCCC(=O)O)c3)no2)ccc1-c1ccccc1C [Example 5, 4-(2,3-difluoro-5-{5-[2-(methoxymethyl)-2′-methylbiphenyl-4-yl]-1,2,4-oxadiazol-3-yl}phenoxy)butanoic acid] as the compound, how does the EC50 (S1P1 [4]) read?
The EC50 was 157 nM.

And the Ki (S1P1 [1]; [6])?
The Ki was 4.09e-09 M.

What about the Ki (S1P1 [1]; [7]) of the same compound?
The Ki was 1.45e-08 M.

And the EC50 (S1P1 [3])?
Its EC50 is 22.7 nM.

With COCc1cc(-c2nc(-c3cccc(S(C)(=O)=O)c3)no2)ccc1N1CCCCC1C (centres unmarked) [Example 6, 1-(2-(methoxymethyl)-4-{3-[3-(methylsulfonyl)phenyl]-1,2,4-oxadiazol-5-yl}phenyl)-2-methylpiperidine, hydrochloride salt] as the compound, how does the EC50 (S1P1 [4]) read?
Its EC50 is 4.39 nM.

And the Ki (S1P1 [1]; [6])?
The Ki was 1.24e-09 M.

And the EC50 (S1P3 [2])?
The EC50 was 2280 nM.

And the EC50 (S1P1 [3])?
Its EC50 is 1.9 nM.

Which EC50 (S1P1 [4]) does the source give for COCc1cc(-c2nc(-c3cccc(COCCC(=O)O)c3)no2)ccc1-c1ccccc1C [Example 7, 3-[(3-{5-[2-(methoxymethyl)-2′-methylbiphenyl-4-yl]-1,2,4-oxadiazol-3-yl}benzyl)oxy]propanoic acid] here?
Its EC50 is 25.5 nM.

What about the Ki (S1P1 [1]; [6]) of the same compound?
Its Ki is 3.29e-09 M.

What about the EC50 (S1P3 [2]) of the same compound?
Its EC50 is 2010 nM.

What about the EC50 (S1P1 [3]) of the same compound?
Its EC50 is 8.05 nM.

How did the EC50 (S1P1 [3]) turn out when Cc1ccccc1-c1ccc(-c2nc(-c3cccc(S(C)(=O)=O)c3)no2)cc1CN(C)C [Example 8, N,N-dimethyl-1-(2′-methyl-4-{3-[3-(methylsulfonyl)phenyl]-1,2,4-oxadiazol-5-yl}biphenyl-2-yl)methanamine] was run?
The EC50 was 11.7 nM.

Which Ki (S1P1 [1]; [6]) does the source give for COCc1cc(-c2nc(-c3cccc(COCCC(=O)O)c3)no2)ccc1N1CCCCC1C (centres unmarked) [Example 9, 3-[4(3-{5-[3-(methoxymethyl)-4-(2-methylpiperidin-1-yl)phenyl]-1,2,4-oxadiazol-3-yl}benzyl)oxy]propanoic acid, hydrochloride salt] here?
Its Ki is 8.04e-10 M.

And the EC50 (S1P1 [3])?
Its EC50 is 3.85 nM.

Which results are given for COCc1cc(-c2nc(-c3cccc(CN(C)CC(=O)O)c3)no2)ccc1-c1ccccc1Cl [Example 11, N-(3-{5-[2′-chloro-2-(methoxymethyl)biphenyl-4-yl]-1,2,4-oxadiazol-3-yl}benzyl)-N-methylglycine, hydrochloride salt]?
EC50 (S1P1 [4]): 10.6 nM; Ki (S1P1 [1]; [6]): 6.21e-10 M; EC50 (S1P3 [2]): 673 nM; EC50 (S1P1 [3]): 2.74 nM

For COCc1cc(-c2nc(-c3ccc(C(=O)NCCC(=O)O)c(Cl)c3)no2)ccc1-c1ccccc1C [Example 15, N-(2-chloro-4-{5-[2-(methoxymethyl)-2′-methylbiphenyl-4-yl]-1,2,4-oxadiazol-3-yl}benzoyl)-beta-alanine], which Ki (S1P1 [1]; [6]) is on record?
Its Ki is 1.06e-09 M.

And the EC50 (S1P3 [2])?
Its EC50 is 553 nM.

And the EC50 (S1P1 [3])?
Its EC50 is 20.9 nM.

For CCc1ccccc1-c1ccc(-c2nc(-c3ccc(C(=O)NCCC(=O)O)c(F)c3)no2)cc1COC [Example 16, N-(4-{5-[2′-ethyl-2-(methoxymethyl)biphenyl-4-yl]-1,2,4-oxadiazol-3-yl}-2-fluorobenzoyl)-beta-alanine], which Ki (S1P1 [1]; [6]) is on record?
The Ki was 2.22e-09 M.

And the EC50 (S1P3 [2])?
The EC50 was 531 nM.

And the EC50 (S1P1 [3])?
Its EC50 is 6.07 nM.

CCC1CCCCN1c1ccc(-c2nc(-c3cccc(CN(C)CC(=O)O)c3)no2)cc1COC (centres unmarked) [Example 17, N-(3-{5-[4-(2-ethylpiperidin-1-yl)-3-(methoxymethyl)phenyl]-1,2,4-oxadiazol-3-yl}benzyl)-N-methylglycine, hydrochloride salt] was tested. Which Ki (S1P1 [1]; [6]) did it give?
Its Ki is 4.46e-10 M.

What about the EC50 (S1P3 [2]) of the same compound?
The EC50 was 255 nM.

What about the EC50 (S1P1 [3]) of the same compound?
Its EC50 is 1.41 nM.

What does the source list for CCc1ccccc1-c1ccc(-c2nc(-c3cccc(CNCCC(=O)O)c3)no2)cc1COC [Example 18, N-(3-{5-[2′-ethyl-2-(methoxymethyl)biphenyl-4-yl]-1,2,4-oxadiazol-3-yl}benzyl)-beta-alanine, hydrochloride salt]?
Ki (S1P1 [1]; [6]): 1.68e-10 M; EC50 (S1P3 [2]): 4.96 nM; EC50 (S1P1 [3]): 0.47 nM

What does the source list for COCc1cc(-c2nc(-c3ccc(F)c(CN(C)CCC(=O)O)c3)no2)ccc1N1CCCCC1C (stereo not drawn) [Example 19, N-(2-fluoro-5-{5-[3-(methoxymethyl)-4-(2-methylpiperidin-1-yl)phenyl]-1,2,4-oxadiazol-3-yl}benzyl)-N-methyl-beta-alanine, dihydrochloride salt]?
Ki (S1P1 [1]; [6]): 1.94e-10 M; EC50 (S1P3 [2]): 34.4 nM; EC50 (S1P1 [3]): 0.545 nM

COCc1cc(-c2nc(-c3cccc(NCC(O)CO)c3)no2)ccc1-c1ccccc1C (centres unmarked) [Example 22, 3-[(3-{5-[2-(methoxymethyl)-2′-methylbiphenyl-4-yl]-1,2,4-oxadiazol-3-yl}phenyl)amino]propane-1,2-diol] was tested. Which Ki (S1P1 [1]; [6]) did it give?
Its Ki is 7.11e-10 M.

What about the EC50 (S1P3 [2]) of the same compound?
Its EC50 is 293 nM.

Which results are given for COCc1cc(-c2nc(-c3ccc(OCCO)cc3)no2)ccc1-c1ccccc1C [Example 23, 2-(4-{5-[2-(methoxymethyl)-2′-methylbiphenyl-4-yl]-1,2,4-oxadiazol-3-yl}phenoxy)ethanol]?
Ki (S1P1 [1]; [6]): 2.17e-09 M; EC50 (S1P3 [2]): 199 nM; EC50 (S1P1 [3]): 7.07 nM

Which results are given for COCc1cc(-c2nc(-c3cccc(CC(=O)NCC(=O)OC)c3)no2)ccc1-c1ccccc1C [Example 24, methyl N-[(3-{5-[2-(methoxymethyl)-2′-methylbiphenyl-4-yl]-1,2,4-oxadiazol-3-yl}phenyl)acetyl]glycinate]?
Ki (S1P1 [1]; [6]): 9.12e-10 M; EC50 (S1P1 [3]): 2.11 nM

What does the source list for COCc1cc(-c2nc(-c3cccc(CC(=O)NCCNC(C)=O)c3)no2)ccc1-c1ccccc1C [Example 25, N-[2-(acetylamino)ethyl]-2-(3-{5-[2-(methoxymethyl)-2′-methylbiphenyl-4-yl]-1,2,4-oxadiazol-3-yl}phenyl)acetamide]?
Ki (S1P1 [1]; [6]): 8.51e-10 M; EC50 (S1P3 [2]): 635 nM; EC50 (S1P1 [3]): 7.08 nM

With COCc1cc(-c2nc(-c3cccc(CC(=O)NCC(=O)O)c3)no2)ccc1-c1ccccc1C [Example 26, N-[(3-{5-[2-(methoxymethyl)-2′-methylbiphenyl-4-yl]-1,2,4-oxadiazol-3-yl}phenyl)acetyl]glycine] as the compound, how does the EC50 (S1P1 [3]) read?
Its EC50 is 10.7 nM.

With COCc1cc(-c2nc(-c3ccc(C(=O)NCC(O)CO)c(F)c3)no2)ccc1-c1ccccc1C (centres unmarked) [Example 27, N-(2,3-dihydroxypropyl)-2-fluoro-4-{5-[2-(methoxymethyl)-2′-methylbiphenyl-4-yl]-1,2,4-oxadiazol-3-yl}benzamide] as the compound, how does the EC50 (S1P1 [3]) read?
The EC50 was 17.8 nM.

COCc1cc(-c2nc(-c3ccc(CN(C)CC(=O)O)c(F)c3F)no2)ccc1-c1ccccc1C [Example 149, 2-((2,3-difluoro-4-(5-(2-(methoxymethyl)-2′-methylbiphenyl-4-yl)-1,2,4-oxadiazol-3-yl)benzyl)(methyl)amino)acetic acid, hydrochloride salt] was tested. Which EC50 (S1P1 [4]) did it give?
Its EC50 is 9.54 nM.

What about the Ki (S1P1 [1]; [7]) of the same compound?
The Ki was 1.26e-09 M.

And the Ki (S1P3 [5])?
Its Ki is 1.48e-07 M.

Which EC50 (S1P1 [4]) does the source give for COCc1cc(-c2nc(-c3cc(F)c(CN(C)CC(=O)O)c(F)c3)no2)ccc1-c1ccccc1C [Example 151, 2-((2,6-difluoro-4-(5-(2-(methoxymethyl)-2′-methylbiphenyl-4-yl)-1,2,4-oxadiazol-3-yl)benzyl)(methyl)amino)acetic acid, hydrochloride salt] here?
The EC50 was 21.6 nM.

What about the Ki (S1P1 [1]; [7]) of the same compound?
Its Ki is 3.53e-09 M.

And the Ki (S1P3 [5])?
The Ki was 3.9e-07 M.
